Data as given in the supplement of paper PMC10307832.

Tests used:
Experiment in all cases: relative viability (nuclei count vs DMSO), 5 days (fraction); higher = more cells survive
[1] = compound: CC1CC(=O)N(C2=CN=C(N=C2N1C3CCCC3)NC4=C(C=C(C=C4)C(=O)NC5CCN(CC5)C)OC)C [NPK76-II-72-1] + Cc1cc(Nc2cc(N3CCN(C)CC3)nc(Sc3ccc(NC(=O)C4CC4)cc3)n2)n[nH]1 [Tozasertib] (partner 0.1 µM)
Procedure, shortened: (§1)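 Nuclei were stained with Hoechst during a one-step fixation (final 0.05% Triton X-100, 1% formaldehyde, 1 ug/ml Hoechst) carried out 5 days after dosing, then counted on 4× images. The cells, lung cancer lines in 1536-well plates, had been dosed by pin tool the day after seeding with one drug alone or a fixed anchor-drug dose plus five library-drug doses (not always all listed) in √10 steps. Relative viability is the nuclei count in treated wells divided by that in vehicle wells, and each value is the median of duplicate plates.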

[2] = compound: CC1CC(=O)N(C2=CN=C(N=C2N1C3CCCC3)NC4=C(C=C(C=C4)C(=O)NC5CCN(CC5)C)OC)C [NPK76-II-72-1] + CS(=O)(=O)N1CCN(Cc2cc3nc(-c4cccc5[nH]ncc45)nc(N4CCOCC4)c3s2)CC1 [Pictilisib] (partner 1 µM)
Procedure, shortened: as §1

[3] = compound: CC1CC(=O)N(C2=CN=C(N=C2N1C3CCCC3)NC4=C(C=C(C=C4)C(=O)NC5CCN(CC5)C)OC)C [NPK76-II-72-1] + C[C@]1(O)C[C@@H](c2nc(-c3ccc4ccc(-c5ccccc5)nc4c3)c3c(N)nccn32)C1 [Linsitinib] (partner 1 µM)
Procedure, shortened: as §1

[4] = compound: CC1CC(=O)N(C2=CN=C(N=C2N1C3CCCC3)NC4=C(C=C(C=C4)C(=O)NC5CCN(CC5)C)OC)C [NPK76-II-72-1] + COc1cccc2cc(-c3nc([C@H]4CC[C@H](C(=O)O)CC4)n4ncnc(N)c34)[nH]c12 [OSI-027] (partner 0.5 µM)
Procedure, shortened: as §1

| Cell Line | relative viability ([1]; first compound 0.01 µM) | relative viability ([1]; first compound 0.03162 µM) | relative viability ([1]; first compound 0.1 µM) | relative viability ([1]; first compound 0.3162 µM) | relative viability ([1]; first compound 1 µM) | relative viability ([2]; first compound 0.01 µM) | relative viability ([2]; first compound 0.03162 µM) | relative viability ([2]; first compound 0.1 µM) | relative viability ([2]; first compound 0.3162 µM) | relative viability ([2]; first compound 1 µM) | relative viability ([3]; first compound 0.01 µM) | relative viability ([3]; first compound 0.03162 µM) | relative viability ([3]; first compound 0.1 µM) | relative viability ([3]; first compound 0.3162 µM) | relative viability ([3]; first compound 1 µM) | relative viability ([4]; first compound 0.01 µM) | relative viability ([4]; first compound 0.03162 µM) | relative viability ([4]; first compound 0.1 µM) | relative viability ([4]; first compound 0.3162 µM) | relative viability ([4]; first compound 1 µM) |
| --- | --- | --- | --- | --- | --- | --- | --- | --- | --- | --- | --- | --- | --- | --- | --- | --- | --- | --- | --- | --- |
| NCI-H1437 | 0.393 | 0.469 | 0.391 | 0.361 | 0.422 | 0.479 | 0.441 | 0.451 | 0.427 | 0.477 | 0.973 | 1.08 | 0.986 | 0.802 | 1.07 | 0.862 | 0.877 | 0.871 | 0.843 | 0.995 |
| NCI-H1651 | 0.632 | 0.919 | 0.661 | 0.388 | 0.759 | 0.432 | 0.548 | 0.703 | 0.557 | 0.592 | 0.947 | 0.972 | 1.09 | 0.867 | 1.05 | 0.676 | 0.743 | 0.677 | 0.652 | 0.799 |
| NCI-H1666 | 0.668 | 0.674 | 0.525 | 0.546 | 0.666 | 0.305 | 0.55 | 0.35 | 0.381 | 0.469 | 0.78 | 0.815 | 0.783 | 0.8 | 0.79 | 0.802 | 0.871 | 0.82 | 0.777 | 0.975 |
| NCI-H1734 | 0.29 | 0.271 | 0.28 | 0.261 | 0.287 | 0.427 | 0.478 | 0.383 | 0.411 | 0.446 | 0.896 | 0.899 | 0.883 | 0.884 | 0.904 | 0.495 | 0.625 | 0.64 | 0.589 | 0.628 |
| NCI-H1755 | 0.669 | 0.663 | 0.526 | 0.552 | 0.653 | 0.369 | 0.462 | 0.397 | 0.432 | 0.422 | 0.972 | 1 | 0.947 | 1.01 | 0.985 | 0.763 | 0.776 | 0.749 | 0.717 | 0.768 |
| NCI-H1793 | 0.34 | 0.377 | 0.36 | 0.263 | 0.369 | 0.309 | 0.472 | 0.483 | 0.332 | 0.257 | 0.771 | 0.962 | 0.971 | 0.495 | 0.742 | 0.268 | 0.322 | 0.258 | 0.27 | 0.311 |
| NCI-H1915 | 0.479 | 0.455 | 0.47 | 0.418 | 0.482 | 0.988 | 1.08 | 0.91 | 0.846 | 0.902 | 1.11 | 1.1 | 1.11 | 1.07 | 1.14 | 0.616 | 0.708 | 0.659 | 0.584 | 0.654 |
| NCI-H1944 | 0.255 | 0.283 | 0.245 | 0.228 | 0.257 | 0.351 | 0.352 | 0.318 | 0.338 | 0.35 | 1.16 | 1.09 | 1.21 | 1.06 | 1.28 | 0.422 | 0.44 | 0.364 | 0.369 | 0.541 |
| NCI-H1975 | 0.731 | 0.893 | 0.673 | 0.665 | 0.912 | 0.267 | 0.278 | 0.28 | 0.279 | 0.277 | 0.956 | 0.921 | 0.913 | 1.01 | 1.03 | 0.698 | 0.712 | 0.753 | 0.72 | 0.753 |
| NCI-H1993 | 0.594 | 0.633 | 0.545 | 0.499 | 0.627 | 0.811 | 0.804 | 0.779 | 0.88 | 0.759 | 0.728 | 0.768 | 0.576 | 0.657 | 0.778 | 0.532 | 0.534 | 0.51 | 0.528 | 0.549 |
| NCI-H2009 | 0.707 | 0.766 | 0.807 | 0.669 | 0.841 | 0.812 | 0.974 | 0.897 | 0.781 | 0.886 | 1.18 | 1.18 | 1.08 | 1.2 | 1.15 | 0.659 | 0.671 | 0.596 | 0.547 | 0.778 |
| NCI-H2023 | 0.326 | 0.366 | 0.403 | 0.308 | 0.44 | 0.264 | 0.227 | 0.244 | 0.257 | 0.253 | 0.488 | 0.713 | 0.716 | 0.56 | 0.655 | 0.373 | 0.426 | 0.412 | 0.415 | 0.454 |
| NCI-H2085 | 0.802 | 0.79 | 0.812 | 0.825 | 0.855 | 0.494 | 0.385 | 0.494 | 0.398 | 0.507 | 0.914 | 0.997 | 0.934 | 0.87 | 0.923 | 0.577 | 0.773 | 0.68 | 0.644 | 0.771 |
| NCI-H2087 | 0.284 | 0.203 | 0.272 | 0.254 | 0.249 | 0.895 | 0.838 | 0.895 | 0.722 | 1.04 | 1.02 | 0.996 | 0.909 | 1 | 1.11 | 0.486 | 0.644 | 0.491 | 0.513 | 0.645 |
| NCI-H2126 | 0.8 | 0.812 | 0.855 | 0.783 | 0.888 | 0.508 | 0.517 | 0.457 | 0.507 | 0.476 | 0.756 | 0.777 | 0.701 | 0.671 | 0.752 | 0.716 | 0.734 | 0.678 | 0.738 | 0.796 |
| NCI-H2228 | 0.243 | 0.265 | 0.341 | 0.213 | 0.422 | 0.359 | 0.497 | 0.503 | 0.402 | 0.483 | 0.428 | 0.572 | 0.763 | 0.66 | 0.736 | 0.427 | 0.615 | 0.547 | 0.55 | 0.724 |
